Source: US7226623B2, “In vitro and in vivo anti-inflammatory effects of a sesquiterpene lactone extract from chicory (Cichorium intybus L.)” (Rutgers, The State University of New Jersey, priority 2005, dated 2007)

Assays:
[1] = system: nitric oxide production by LPS-induced macrophages; test: Griess assay for NO production; assay type: cell-based, murine; details: aspirin 10 μM, LPS 1 μg/mL, 24 hours
Description: Down-regulation of various pro-inflammatory genes, including iNOS, IL1β and TNF-α, can reduce nitric oxide production by macrophages. In order to confirm that changes in pro-inflammatory gene expression were affecting cellular function, the Griess assay was performed to indirectly measure nitric oxide production by LPS-induced macrophages by measuring nitrite. For the assay, RAW cells were plated in a 96-well plate at a minimum density of 5×10^3 cells/well and grown for 24 hours. […] After 24 hours, conditioned media (50 μl) was removed and immediately mixed with 100 μl of Griess reagent ([…], 1% naphthalene-ethylenediamine dihydrochloride in 5% H3PO4). After incubation for 15 minutes at room temperature, the samples were read at 550 nm using a microplate spectrophotometer (Molecular Devices, Sunnyvale, Calif.). Data for each treatment were normalized based on results from an MTT cell proliferation assay.

Wistar rats = test: Carrageenan-induced rat paw edema; assay type: in vivo; details: indomethacin (15 mg/kg)
Description: Groups of 5 adult male and female Wistar rats with body weights from 136 g to 170 g were used for this study. Rats were housed five animals per cage in a room kept at 24-26° C. and fed ad libitium. Before the experiment began, rat paw sizes were recorded by measuring paw volume three times on each animal using a plethysmometer (Ugo Basile, Comerio VA, Italy). The values were averaged to give a baseline paw size value. To start the experiment, animals were given a subcutaneous injection of 1% carrageenan (100 μl; Sigma, St. Louis, Mo.) in the area of the back paw to induce an acute inflammatory reaction (paw edema). One hour after carrageenan injection, rats were orally gavaged with chicory extract or vehicle control (4% apricot kernel balm). Paw size was measured at 3 hours, 5 hours, and 24 hours after injection. The increase in paw edema at each time point was determined by comparison with paw volume measured pre-injection. Inhibition of edema was calculated by comparison with vehicle control at the same time point.

BALB/c mice = test: Collagen induced arthritis (type II collagen mAbs with LPS challenge); assay type: in vivo; details: indomethacin 3 mg/kg oral
Description: Groups of 5 BALB/c mice weighing 25±2 g were used for this study. A 4 mg/mouse combination of 4 monoclonal antibodies (mAbs) against type II collagen (D8, F10, DI-2G, and A2; IBL Co., Japan) was administered to mice intravenously on day 0 of the study to induce an inflammatory reaction mimicking rheumatoid arthritis. On day 3 of the study, mice were given LPS ([…]) intravenously to potentiate the inflammatory effect. One hour after LPS administration, mice were dosed orally with chicory extract (200 mg/kg), indomethacin (3 mg/kg; Sigma, St. Louis, Mo.), or vehicle control (1% carboxymethylcellulose, CMC; Sigma, St. Louis, Mo.). Mice were dosed with chicory extract or vehicle for two more consecutive days. Volumes of both hind paws were measured using a plethysmometer on days 0, 5, 7, 10, 14, and 17. The increase in paw edema at each time point was determined by comparison with paw volume measured on day 0. Inhibition of edema was calculated by comparison with vehicle control at the same time point. This study was a GLP study (#1038342) performed by MDS Pharma Services (Taiwan).

SMILES: CC(=O)Oc1ccccc1C(=O)O [aspirin]
- Griess assay % LPS control [1]: 69%

SMILES: COc1ccc2c(c1)c(CC(=O)O)c(C)n2C(=O)c1ccc(Cl)cc1 [indomethacin]
- Rat Paw Edema, inhibition of edema vs vehicle control (Wistar rats; 3 h after carrageenan): 43%
- Rat Paw Edema, inhibition of edema vs vehicle control (Wistar rats; 5 h after carrageenan): 36%
- Rat Paw Edema, inhibition of edema vs vehicle control (Wistar rats; 24 h after carrageenan): 51%
- Mouse arthritis % inhibition of edema (BALB/c mice; day 5): 83%
- Mouse arthritis % inhibition of edema (BALB/c mice; day 7): 81%
- Mouse arthritis % inhibition of edema (BALB/c mice; day 10): 82%
- Mouse arthritis % inhibition of edema (BALB/c mice; day 14): 77%
- Mouse arthritis % inhibition of edema (BALB/c mice; day 17): 85%
